Results as given in PMC12284876 (RSC Advances, 2025).

Target: α-glucosidase from Saccharomyces cerevisiae (Saccharomyces cerevisiae, UniProt P53341)
Assay: α-Glucosidase inhibitory assay
Assay type: biochemical
Conditions: mean ± standard error, n = 3; for Inhibition (I, %) 10 μM: compound at 10 μM; for Inhibition (I, %) 10 μM / Inhibition (I, %) 25 μM: series 250–10 μM; for Inhibition (I, %) 25 μM: compound at 25 μM; for Inhibition (I, %) 50 μM: compound at 50 μM; for Inhibition (I, %) 100 μM: compound at 100 μM; for Inhibition (I, %) 250 μM: compound at 250 μM

α-glucosidase from Saccharomyces cerevisiae, sequence (P53341 whole entry): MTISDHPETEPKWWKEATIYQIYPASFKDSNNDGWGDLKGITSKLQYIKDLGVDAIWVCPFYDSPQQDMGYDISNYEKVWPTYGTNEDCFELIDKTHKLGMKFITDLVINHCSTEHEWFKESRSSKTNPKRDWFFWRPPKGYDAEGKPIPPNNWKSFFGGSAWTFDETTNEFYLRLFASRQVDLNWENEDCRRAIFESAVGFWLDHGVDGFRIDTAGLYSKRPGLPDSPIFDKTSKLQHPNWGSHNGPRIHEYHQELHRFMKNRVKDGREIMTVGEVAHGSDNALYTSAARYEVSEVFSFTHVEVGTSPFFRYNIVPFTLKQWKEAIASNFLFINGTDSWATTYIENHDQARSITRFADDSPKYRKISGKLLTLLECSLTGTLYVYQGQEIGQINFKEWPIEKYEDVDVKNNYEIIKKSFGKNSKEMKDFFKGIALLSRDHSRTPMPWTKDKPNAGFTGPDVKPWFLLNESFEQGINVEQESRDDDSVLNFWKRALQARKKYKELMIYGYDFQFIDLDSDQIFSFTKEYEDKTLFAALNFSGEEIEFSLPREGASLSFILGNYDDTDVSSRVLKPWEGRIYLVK

Inhibition (I, %) 10 μM [%] | Inhibition (I, %) 25 μM [%] | Inhibition (I, %) 50 μM [%] | Inhibition (I, %) 100 μM [%] | Inhibition (I, %) 250 μM | SMILES
5.45 ± 0.68 | 9.3 ± 1.2 | 21.0 ± 1.6 | 26.8 ± 1.0 | 63.8 ± 1.0% | C[C@H]1O[C@H](O[C@H]2[C@H](O)[C@@H](O)[C@@H](O[C@H]3[C@H](O)[C@@H](O)C(O)O[C@@H]3CO)O[C@@H]2CO)[C@H](O)[C@@H](O)[C@@H]1N[C@H]1C=C(CO)[C@@H](O)[C@H](O)[C@H]1O (stereo partly shown) [Acarbose]
8.6 ± 1.4 | 44.1 ± 2.9 | 84.9 ± 1.1 | 98.5 ± 2.2 | ^b (Inhibition > 99%) | O=c1c(O)c(-c2ccc(O)cc2)oc2cc(O)cc(O)c12 [Compound 8, kaempferol]
